Measurements reported in patent US9580465B2, “Tissue protective peptides and peptide analogs for preventing and treating diseases and disorders associated with tissue damage” (ARAIM PHARMACEUTICALS, INC., priority 2008, dated 2017).
Values joined by “and” are separate entries in the source; they are usually repeats but may differ in a detail not shown here. Identical values can stand only once. “Also recorded” adds a separate entry of the source. Square brackets hold non-standard residues; d marks the D form. pGlu = O=C1CC[C@@H](C(=O)O)N1

Columns and labels:
[1] = system: full-thickness skin wounds; assay: Full thickness punch biopsy model of wound healing; format: in vivo, Sprauge-Dawley rats; details: 24 nmol/kg of bw s.c. daily for 10 days; FIG. 8
Procedure: A full thickness punch biopsy model of wound healing was used to evaluate Peptide ID. In this experiment, 3.5 mm-diameter full-thickness skin wounds were placed at the corners of a 3 cm-wide square on the shaved and depilated scapular region of Sprauge-Dawley rats. Peptide ID (24 nmol/kg of bw, 9 rats) or PBS (9 rats) was administered subcutaneously daily for 10 days.

[2] = system: total body gamma radiation; assay: Radiomitigating activity in hematopoietic screening assay; format: in vivo, C57BL/6 mice; details: for survival at day 30: 30 ug/kg subcutaneously from 24 hrs after irradiation, daily for 29 days
Procedure: The ability of peptides useful in the current therapeutic method to mitigate the effects of a radioactive agent on the hematopoietic system was evaluated in a murine model of radiation injury. Briefly, 80 C57BL/6 mice (50% female and 50% male, 15-28 gm) were used in the study were divided into two groups.
In both groups the radiation was administered to the mice as a single uniform total body dose of gamma radiation from a ^137Cs radiation source (GammaCell 40; Nordion International, Kanata, Ontario, Canada) at an exposure rate of 65-69 cGy/minute+/−2.5 cGy.
Group A received a LD70/30 dose of radiation (796 cGy) and then 20 of the mice were administered Peptide ID (30 ug/kg subcutaneously) at 24 hrs after irradiation and then once a day for 29 days. The remaining 20 mice (control group) received PBS (subcutaneously) at 24 hrs after irradiation and then once a day for 29 days.
The remaining 20 mice (control group) received PBS (subcutaneously) at 24 hrs after irradiation and then once a day for 29 days.
The mice were monitored for survival once a day until signs of early euthanasia appeared, then twice/day until day 30.

histamine [3] = assay: Histamine induced ear inflammation; format: in vivo, Sprague Dawley rats; details: 30 μg/kg IV; 15, 30, 45 and sixty minutes; versus saline; FIG. 15
Procedure: The ability of peptides useful in the current therapeutic method to antagonize the pro-inflammatory affects of histamine were evaluated in a mouse model of histamine-induced edema disclosed in Brand et al. “Tea tree oil reduces histamine-induced oedema in murine ears,” Inflamm. Res. 51 (2002) 283-289. Briefly, 24 Sprague Dawley rats (male, 250 gm) were used in the study. Prior to the histamine challenge, each rat was anesthetized and the thickness of the rat's ear was measured using a spring loaded micrometer. 20 ul of 60 mg/ml solution of histamine diphosphate was injected intradermally into an ear of the rat and 30 seconds later the rat received either (1) 30 μg/kg Peptide ID IV (12 rats) or (2) Saline IV (12 rats). Then 20 ul of 60 mg/ml solution of histamine diphosphate was injected intradermally to the rat's other ear. The thickness of the rats ears was then measured using a caliper at 15, 30, 45 and sixty minutes following the histamine challenge.

[4] = system: recall of previously experienced objects; assay: Novel object recognition paradigm; format: in vivo, Wistar rats
Procedure: A novel object recognition paradigm in rats was used to evaluate their recall of previously experienced objects. Specifically, adult Wistar rats were exposed to novel test objects and then reexposed to them 24 hours later. Animals were divided into 5 groups receiving either: (1) vehicle, (2) galantamine (3 mg/kg i.p.) 1 hr before testing as a positive control, (3) Peptide ID (24 nmol/kg bw i.p.) 3 hours after the first exposure to the novel objects, (4) Peptide ID (24 nmol/kg bw i.p.) twice daily for 5 days before training and continued through the day immediately after training, and (5) Peptide ID (24 nmol/kg bw i.p.) 1 hour before first exposure to the novel object.

histamine [5] = assay: Histamine induced wheal formation, peptide given at time of challenge; format: in vivo, Sprague-Dawley rats; details: 30 μg/kg at time of histamine challenge
Procedure: Under isoflurane anesthesia, 12 Sprague-Dawley rats' abdomens were shaved and depilated. Each rat was then injected intravenously (via internal jugular) with a dilute solution of Evans Blue (30 mg/ml in saline, 1 ml/kg bw). After 5 minutes, 6 small doses of histamine (Histamine diphosphate, 20 microliters administered intradermally) in a rectangular pattern on each rat's abdomen. After fifteen minutes, when the wheal reaches its maximum size the wheal is photographed and the blister area was determined by digital planimetry. To test the efficacy of various peptides, the peptide of interest was administered to the rats intravenously shortly after the histamine injection.
Rats received either saline, Peptide IY (30 μg/kg), Peptide ID (30 μg/kg), or Peptide IW (30 μg/kg) at time of histamine challenge.
Rats received either saline, peptide JA (30 μg/kg), peptide IZ (30 μg/kg), peptide IW (30 μg/kg) or peptide ID (30 μg/kg) at time of histamine challenge.

[6] = system: 9 L/LacZ gliosarcoma cells; assay: Cortical tumor implant; format: in vivo, CD fisher rats; details: 30 μg/kg i.p. daily for 25 days following implantation; FIG. 12
Procedure: A cortical tumor implant study was conducted in accordance with the protocol of Lampson et al. Cancer Res. 53:176-82:1993 to determine the effect of Peptide ID on the growth of the tumor.
In accordance with the protocol, male CD fisher rats were anesthetized and their right scalp was shaved and washed with disinfectant. A small incision was then made in the scalp overlying the right temporal cerebral cortex. A 1 mm hole was drilled through the calvarium, without puncturing the dura matter. Under aseptic conditions, living 50,000 9 L/LacZ gliosarcoma cells in 5 μl was slowly injected through a 22 gauge needle attached to a precision Hamilton syringe. Bone wax was then applied to the trephanation site, the skin was sutured and a prophylactic dose of antibiotic was administered i.p. Control rats were provided with saline injections i.p. daily. The rats treated with Peptide ID received daily injections of 30 μg/kg i.p. daily for a period of 25 days. At 25 days following implantation, the animal was anesthetized and the brain perfused-fixed with 2% paraformaldehyde. The brain was then removed and cut on a brain matrix device into coronal sections 1 mm thick and the extent of tumor mass was determined by planimetric methodology.

UEQLERALNSS ([pGlu]EQLERALNSS-OH; also: acetate/ammonium mixed salt) [Peptide ID, first glutamine replaced with pyroglutamate]
area of open wound over treatment [1]: faster healing; also recorded: healed more rapidly | survival at day 30 ([2]; 796 cGy (LD70/30), FIG. 21A): 45% | thirty-day survival and overall survival time versus PBS ([2]; 796 cGy and 831 cGy, 30 ug/kg subcutaneously daily): significantly increased the overall survival time | survival at day 30 ([2]; 831 cGy (LD90/30), FIG. 21B): 20% | ear thickness (edema) after histamine challenge (histamine [3]): reduced the amount of edema; also recorded: less inflammation | recognition of the novel objects ([4]; galantamine 3 mg/kg of bw, Peptide ID 24 nmol/kg of bw at various time points, FIG. 9): increased the rats recognition of the novel objects | recognition of the novel objects ([4]; group 3: 24 nmol/kg bw i.p. 3 hours after the first exposure to the novel objects): improved recognition of the novel objects | recognition of the novel objects ([4]; group 4: 24 nmol/kg bw i.p. twice daily for 5 days before training and through the day after training): improved recognition of the novel objects | wheal area (lesion area) (histamine [5]; FIG. 18): about 0.35 cm^2 | wheal area (lesion area) (histamine [5]; FIG. 19): ~0.35 cm^2 and 0.4 cm^2 | relative volume of cortical tumor [6]: no growth in the tumor volume; also recorded: no increase in the relative volume of the tumor
